This note sets out measurements from patent publication US20220388964A1 (HiberCell, Inc., priority 2019, published 2022).

Sequence of GCN2 (Q9P2K8 whole entry): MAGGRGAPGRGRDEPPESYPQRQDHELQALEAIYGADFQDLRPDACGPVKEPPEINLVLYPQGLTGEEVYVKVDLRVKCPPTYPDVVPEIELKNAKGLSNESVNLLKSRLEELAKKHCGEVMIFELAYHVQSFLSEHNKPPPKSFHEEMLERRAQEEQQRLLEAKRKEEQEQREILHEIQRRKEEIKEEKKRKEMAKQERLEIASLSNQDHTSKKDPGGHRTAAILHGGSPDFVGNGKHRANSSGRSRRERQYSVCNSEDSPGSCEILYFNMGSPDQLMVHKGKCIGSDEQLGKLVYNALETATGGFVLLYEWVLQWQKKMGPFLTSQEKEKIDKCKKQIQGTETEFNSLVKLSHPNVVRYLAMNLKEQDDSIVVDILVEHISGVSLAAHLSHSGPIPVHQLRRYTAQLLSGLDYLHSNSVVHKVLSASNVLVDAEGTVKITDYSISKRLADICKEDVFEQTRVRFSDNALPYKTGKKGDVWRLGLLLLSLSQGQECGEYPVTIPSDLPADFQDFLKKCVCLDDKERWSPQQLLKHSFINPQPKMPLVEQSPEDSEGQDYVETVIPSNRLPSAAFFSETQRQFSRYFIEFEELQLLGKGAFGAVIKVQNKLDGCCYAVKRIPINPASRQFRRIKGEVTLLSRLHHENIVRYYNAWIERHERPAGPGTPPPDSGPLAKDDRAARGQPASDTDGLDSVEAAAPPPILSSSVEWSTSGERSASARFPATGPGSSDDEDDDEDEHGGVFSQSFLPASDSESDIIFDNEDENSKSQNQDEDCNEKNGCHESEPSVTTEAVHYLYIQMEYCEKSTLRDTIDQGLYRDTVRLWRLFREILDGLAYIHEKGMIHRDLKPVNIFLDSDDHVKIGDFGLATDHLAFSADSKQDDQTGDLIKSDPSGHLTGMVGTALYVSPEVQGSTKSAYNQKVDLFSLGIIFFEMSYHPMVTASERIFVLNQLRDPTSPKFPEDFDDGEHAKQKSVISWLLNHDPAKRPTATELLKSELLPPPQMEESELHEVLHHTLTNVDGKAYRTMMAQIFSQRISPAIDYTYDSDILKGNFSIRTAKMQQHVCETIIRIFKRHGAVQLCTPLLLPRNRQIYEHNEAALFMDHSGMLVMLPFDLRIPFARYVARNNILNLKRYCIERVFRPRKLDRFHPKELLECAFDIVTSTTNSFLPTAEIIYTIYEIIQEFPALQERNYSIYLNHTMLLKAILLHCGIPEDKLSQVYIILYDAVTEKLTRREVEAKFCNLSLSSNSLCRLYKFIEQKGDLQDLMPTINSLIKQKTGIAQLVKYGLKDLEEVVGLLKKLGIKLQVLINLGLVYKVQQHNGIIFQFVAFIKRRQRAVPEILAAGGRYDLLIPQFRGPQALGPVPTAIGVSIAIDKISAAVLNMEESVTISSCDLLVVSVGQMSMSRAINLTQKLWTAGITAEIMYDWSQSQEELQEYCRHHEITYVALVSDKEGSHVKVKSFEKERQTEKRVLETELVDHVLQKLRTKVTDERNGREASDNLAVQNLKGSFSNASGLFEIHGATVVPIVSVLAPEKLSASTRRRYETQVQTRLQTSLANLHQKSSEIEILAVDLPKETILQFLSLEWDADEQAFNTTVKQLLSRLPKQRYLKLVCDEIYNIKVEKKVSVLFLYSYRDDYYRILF

One assay addresses GCN2 (Homo sapiens, UniProt Q9P2K8). Put plainly: TR-FRET biochemical assay for inhibition of GCN2 (Example 106, for Example 1-4BB). As to conditions: Table 8.
As a reminder, the IC50 is the midpoint of a concentration-inhibition curve. On to `COC(=O)c1n[nH]c2c(F)c(-c3c(F)ccc(NS(=O)(=O)c4cc(Cl)cnc4OC)c3F)ccc12` [Example 4, Methyl 6-(3-((5-Chloro-2-methoxypyridine)-3-sulfonamido)-2,6-difluorophenyl)-7-fluoro-1H-indazole-3-carboxylate], for which the IC50 was below 500 nM. The same measure, in the same setting: the value for `COc1ncc(Cl)cc1S(=O)(=O)Nc1ncc(F)c(-c2ccc3c(-c4ncc[nH]4)n[nH]c3c2F)c1F` [Example 6, 5-Chloro-N-(3,5-difluoro-4-(7-fluoro-3-(1H-imidazol-2-yl)-1H-indazol-6-yl)pyridin-2-yl)-2-methoxypyridine-3-sulfonamide] was below 500 nM; that for `COc1ncc(Cl)cc1S(=O)(=O)Nc1ccc(F)c(-c2ccc3c(N)n[nH]c3c2F)c1F` [Example 7, N-(3-(3-Amino-7-fluoro-1H-indazol-6-yl)-2,4-difluorophenyl)-5-chloro-2-methoxypyridine-3-sulfonamide] was 500 to 2500 nM. Same read-out and setting: the value for `COc1ncc(Cl)cc1S(=O)(=O)Nc1ccc(F)c(-c2ccc3c(NC(C)=O)n[nH]c3c2F)c1F` [Example 8, N-(6-(3-((5-Chloro-2-methoxypyridine)-3-sulfonamido)-2,6-difluorophenyl)-7-fluoro-1H-indazol-3-yl)acetamide] was 500 to 2500 nM.

Staying with this assay, now noted: Table 9.
Turning to `COc1ncc(F)cc1S(=O)(=O)Nc1ccc(F)c(-c2ccc3c(C(=O)Nc4cnn(C)c4)n[nH]c3c2F)c1F` [Example 3Z, 6-(2,6-difluoro-3-((5-fluoro-2-methoxypyridine)-3-sulfonamido)phenyl)-7-fluoro-1H-(1-methyl-1H-pyrazol-4-yl)-1H-indazole-3-carboxamide], the IC50 was below 500 nM. Turning to `NC(=O)c1n[nH]c2c(F)c(-c3c(F)ccc(NS(=O)(=O)c4cc(F)cc(CO)c4Cl)c3F)ccc12` [Example 4AB], the IC50 was below 500 nM. For the compound `O=C(Nc1cnn(CCO)c1)c1n[nH]c2c(F)c(-c3c(F)ccc(NS(=O)(=O)c4cc(F)cc(CO)c4Cl)c3F)ccc12` [Example 4AC], the IC50 was below 500 nM. Still for that read-out and setting: the value for `O=C1CCc2c1cc(F)cc2S(=O)(=O)Nc1ccc(F)c(-c2ccc3c(C(=O)Nc4cn[nH]c4)n[nH]c3c2F)c1F` [Example 4AD] was below 500 nM; that for `Cn1cc(NC(=O)c2n[nH]c3c(F)c(-c4c(F)ccc(NS(=O)(=O)c5cc(F)cc6c5CCC6O)c4F)ccc23)cn1` (centres unmarked) [Example 4AI] was below 500 nM. Same read-out and setting: the value for `O=C(Nc1cnn(CCO)c1)c1n[nH]c2c(F)c(-c3c(F)ccc(NS(=O)(=O)c4cc(F)cc5c4CCC5O)c3F)ccc12` (centres unmarked) [Example 4AJ] was below 500 nM. Same read-out and setting: the value for `COc1ncc(Cl)cc1S(=O)(=O)Nc1ccc(F)c(-c2ccc3c(-c4cnn[nH]4)n[nH]c3c2F)c1F` [Example 4AN] was below 500 nM; that for `NC1CCc2c1cc(F)cc2S(=O)(=O)Nc1ccc(F)c(-c2ccc3c(-c4ncc[nH]4)n[nH]c3c2F)c1F` (centres unmarked) [Example 4AO] was above 10000 nM. Consider `CC1CCc2c1cc(F)cc2S(=O)(=O)Nc1ccc(F)c(-c2ccc3c(-c4ncc[nH]4)n[nH]c3c2F)c1F` (centres unmarked) [Example 4AQ], for which the IC50 was below 500 nM.

As to `Cc1ccc(F)cc1S(=O)(=O)Nc1ccc(F)c(-c2cc3[nH]ncc3cn2)c1F` [Example 4BB], the IC50 fell in the range of 500 to 2500 nM. Still for that read-out and setting: the value for `COc1ncc(C#N)cc1S(=O)(=O)Nc1ccc(F)c(-c2ccc3c(C(=O)NCCCO)n[nH]c3c2F)c1F` [Example 4C] was 500 to 2500 nM.

For the compound `COc1ncc(C#N)cc1S(=O)(=O)Nc1ccc(F)c(-c2ccc3c(C(N)=O)n[nH]c3c2F)c1F` [Example 4D], the IC50 was below 500 nM. Same read-out and setting: the value for `Cc1ncc(C#N)cc1S(=O)(=O)Nc1ccc(F)c(-c2ccc3c(C(N)=O)n[nH]c3c2F)c1F` [Example 4E] was below 500 nM. Still for that read-out and setting: the value for `Cc1c(CO)cc(F)cc1S(=O)(=O)Nc1ccc(F)c(-c2ccc3c(C(N)=O)n[nH]c3c2F)c1F` [Example 4G] was below 500 nM.

Compound `Cc1c(CO)cc(F)cc1S(=O)(=O)Nc1ccc(F)c(-c2ccc3c(C(=O)NCCCO)n[nH]c3c2F)c1F` [Example 4H] returned an IC50 below 500 nM. Still for that read-out and setting: the value for `Cc1c(CO)cc(F)cc1S(=O)(=O)Nc1ccc(F)c(-c2ccc3c(C(=O)Nc4cn[nH]c4)n[nH]c3c2F)c1F` [Example 4K] was below 500 nM; that for `CN(C)CCCNC(=O)c1n[nH]c2c(F)c(-c3c(F)ccc(NS(=O)(=O)c4cc(F)cc(CO)c4F)c3F)ccc12` [Example 4P] was below 500 nM. Compound `NC(=O)c1n[nH]c2c(F)c(-c3c(F)ccc(NS(=O)(=O)c4cc(F)cc5c4CCC5O)c3F)ccc12` (centres unmarked) [Example 4R] yielded an IC50 below 500 nM. Still for that read-out and setting: the value for `NC(=O)c1n[nH]c2c(F)c(-c3c(F)ccc(NS(=O)(=O)c4cc(F)cc5c4CCC5=O)c3F)ccc12` [Example 4S] was below 500 nM. Same read-out and setting: the value for `O=C(NCCCO)c1n[nH]c2c(F)c(-c3c(F)ccc(NS(=O)(=O)c4cc(F)cc5c4CCC5O)c3F)ccc12` (centres unmarked) [Example 4T] was below 500 nM. On the same count and under the same terms, the value for `O=C1CCc2c1cc(F)cc2S(=O)(=O)Nc1ccc(F)c(-c2ccc3c(C(=O)NCCCO)n[nH]c3c2F)c1F` [Example 4U] was below 500 nM; that for `O=S(=O)(Nc1ccc(F)c(-c2ccc3c(-c4ccccc4)n[nH]c3c2)c1F)c1cc(F)ccc1F` [Example 10, N-(2,4-Difluoro-3-(3-phenyl-1H-indazol-6-yl)phenyl)-2,5-difluorobenzenesulfonamide] was 2500 to 10000 nM.

In the case of `COc1ncc(Cl)cc1S(=O)(=O)Nc1nccc(-c2ccc3c(-c4ncc[nH]4)n[nH]c3c2F)c1F` [Example 11, 5-Chloro-N-(3-fluoro-4-(7-fluoro-3-(1H-imidazol-2-yl)-1H-indazol-6-yl)pyridin-2-yl)-2-methoxypyridine-3-sulfonamide], the IC50 is above 10000 nM. The same measure, in the same setting: the value for `COc1ncc(F)cc1S(=O)(=O)Nc1cccc(-c2ccc3c(C4CCC(=O)N4)n[nH]c3c2F)c1F` (centres unmarked) [Example 12, 5-Fluoro-N-(2-fluoro-3-(7-fluoro-3-(5-oxopyrrolidin-2-yl)-1H-indazol-6-yl)phenyl)-2-methoxypyridine-3-sulfonamide] was above 10000 nM; that for `COc1ncc(F)cc1S(=O)(=O)Nc1cccc(-c2ccc3c(-c4nc(CO)c[nH]4)n[nH]c3c2F)c1F` [Example 13, 5-Fluoro-N-(2-fluoro-3-(7-fluoro-3-(4-(hydroxymethyl)-1H-imidazol-2-yl)-1H-indazol-6-yl)phenyl)-2-methoxypyridine-3-sulfonamide] was below 500 nM; that for `COc1cccc(-c2n[nH]c3c(F)c(-c4c(F)ccc(NS(=O)(=O)c5cc(F)cnc5C)c4F)ccc23)n1` [Example 14, N-(2,4-Difluoro-3-(7-fluoro-3-(6-methoxypyridin-2-yl)-1H-indazol-6-yl)phenyl)-5-fluoro-2-methylpyridine-3-sulfonamide] was 500 to 2500 nM. Same read-out and setting: the value for `Cc1ncc(F)cc1S(=O)(=O)Nc1ccc(F)c(-c2ccc3c(-c4cccc(=O)[nH]4)n[nH]c3c2F)c1F` [Example 15, N-(2,4-Difluoro-3-(7-fluoro-3-(6-oxo-1,6-dihydropyridin-2-yl)-1H-indazol-6-yl)phenyl)-5-fluoro-2-methylpyridine-3-sulfonamide] was below 500 nM.

In turn, `COc1ncc(F)cc1S(=O)(=O)Nc1ccc(F)c(-c2ccc3c(-c4nc(Cl)c[nH]4)n[nH]c3c2F)c1F` [Example 17, N-(3-(3-(4-Chloro-1H-imidazol-2-yl)-7-fluoro-1H-indazol-6-yl)-2,4-difluorophenyl)-5-fluoro-2-methoxypyridine-3-sulfonamide] yielded an IC50 below 500 nM.
